Measurements published in patent US20050130909A1 (priority 2002, published 2005).
“And” between values parts separate entries of the source, which are not always exact repeats. Identical values can stand only once. Like-named read-outs stand apart in the source and are kept apart here.

Key:
Gram-positive pathogen = assay: Phase II SSTI trial: microbiological response, all Gram-positive pathogens; format: in vivo, human; settings: for Success rate by pathogen: Total organisms: MITT at FU; for Microbiologic success rate (by patient): MITT population; for Eradication/presumed eradication rate, all organisms: microbiologically-evaluable population at FU
Protocol: (§1) This randomized, controlled study evaluated the safety and efficacy of two dose regimens of dalbavancin.
(§2) There were 62 patients randomized into the study; all received at least one dose of study medication. Four study populations were evaluated for safety and efficacy and were defined as follows: The intent-to-treat (ITT) population included all patients who received at least one dose of study drug (all randomized study subjects).
Microbiological outcome, a secondary efficacy variable, was assessed in the subpopulation of patients who had microbiologically documented SSTI (i.e., at least one identified baseline pathogen). A microbiologic response was assessed for each Gram-positive pathogen identified at baseline (i.e., eradication, presumed eradication, persistence, presumed persistence). For patients for whom follow-up cultures were not performed, the microbiologic responses for baseline pathogens were presumed on the basis of the clinical response. Microbiologic response by patient at the EOT and FU visits was graded as success (i.e., all Gram-positive organisms eradicated or presumed eradicated) or failure (i.e., at least one Gram-positive organism persisted or presumed to have persisted, multiple pathogens with partial eradication). At both the EOT and FU visits, colonization and superinfection were assessed. At the FU visit, a patient's bacteriological response could also include recurrence.

[1] = test system: skin and soft tissue infections (SSTI); assay: Phase II SSTI trial: clinical response (success = cure or improvement); format: in vivo, human; settings: for Clinical success rate at FU, patients with MRSA: MITT population; for Clinical success rate, exploratory subanalysis: patients with deep or complicated SSTI at baseline
Protocol: as §1, §2
The effectiveness of the three treatment regimens was determined by assessing the patients' clinical response and the documented or presumed microbiological responses. The primary efficacy endpoint was clinical response at the follow-up visit for the clinically evaluable population. Clinical response, for both EOT and FU visits, was categorized as success (cure or improvement) or failure (including indeterminate results). Patients classified as successes must not have received additional systemic antibacterial treatment for their infection. Failure was defined as persistence of one or more local or systemic signs and symptoms of SSTI such that treatment with new or additional systemic antibacterial agents was required for the SSTI.

[2] = Rat quantitative tissue distribution study; format: in vivo, Sprague-Dawley rats
Protocol: Quantitative tissue distribution studies were conducted to assess the tissue distribution of dalbavancin following a single IV infusion of dalbavancin to male rats.
All samples were analyzed by LSC.

rat albumin = rat albumin (Rattus norvegicus, UniProt P02770); assay: Protein binding by ITC; settings: pH 7.4
[3] = ESI-MS analysis of multimers in solution
Protocol: Experiments were performed using an Applied Biosystem API III+ mass spectrometer equipped with a TurboIonSpray source, a Triple Quadrupole analyzer, operating in positive ion mode.
The mass spectra were obtained in electrospray positive mode on a Finnigan LCQ^Deca ion trap instrument previously tuned and calibrated in electrospray mode using Ultramark 1621, caffeine and MRFA (L-metionyl-arginyl-phenilalanyl-arginine).

Streptococcus pyogenes = assay: Dalbavancin MIC of baseline pathogens; format: cell-based; settings: baseline isolates, MITT
Source text: (§3) The most common pathogen was S. aureus.

[4] = test system: Miscellaneous Streptococcus and nontypeable strains; assay: Dalbavancin MIC of baseline pathogens; format: cell-based; settings: baseline isolates, MITT
Source text: as §3

S. aureus = assay: Dalbavancin MIC of baseline pathogens; format: cell-based; settings: baseline isolates, MITT
Source text: as §3

Group B streptococcus = assay: Dalbavancin MIC of baseline pathogens; format: cell-based; settings: baseline isolates, MITT
Source text: as §3

dipeptide (D-Ala-D-Ala) = assay: ITC, preliminary experiments; format: binding; settings: absence of serum proteins
[5] = Phase II SSTI trial: adverse events (ITT population); format: in vivo, human
Protocol: as §1
Each patient who received at least one dose of study drug (ITT population) was evaluated for drug safety through monitoring of adverse events (AE), including abnormal clinical laboratory test results and vital signs. AE were rated by the investigator as to their severity (mild, moderate, severe, life-threatening), and by the relationship to the study drug (not related, unlikely related, possibly related, or probably related).

[6] = Stability of dalbavancin in plasma; format: in vitro ADME, human; settings: 1.5 and 90 μg/ml
[7] = test system: N,N′-diacetyl-Lys-D-Ala-D-Ala; assay: ITC of binding to tri-peptide cell-wall analog, with and without HSA
Protocol: Peptide concentrations were determined by weight.
Trans. R. Soc. Lond. Ser. A-Math. Phys. Eng. […] Wiley, (1998) p 103-111; and Cooper, A., Curr. Opin. Chem. Biol. (1999) 3, 557-563.

[8] = single-dose dalbavancin (N = 20)

Chain of rat albumin (P02770 25-608): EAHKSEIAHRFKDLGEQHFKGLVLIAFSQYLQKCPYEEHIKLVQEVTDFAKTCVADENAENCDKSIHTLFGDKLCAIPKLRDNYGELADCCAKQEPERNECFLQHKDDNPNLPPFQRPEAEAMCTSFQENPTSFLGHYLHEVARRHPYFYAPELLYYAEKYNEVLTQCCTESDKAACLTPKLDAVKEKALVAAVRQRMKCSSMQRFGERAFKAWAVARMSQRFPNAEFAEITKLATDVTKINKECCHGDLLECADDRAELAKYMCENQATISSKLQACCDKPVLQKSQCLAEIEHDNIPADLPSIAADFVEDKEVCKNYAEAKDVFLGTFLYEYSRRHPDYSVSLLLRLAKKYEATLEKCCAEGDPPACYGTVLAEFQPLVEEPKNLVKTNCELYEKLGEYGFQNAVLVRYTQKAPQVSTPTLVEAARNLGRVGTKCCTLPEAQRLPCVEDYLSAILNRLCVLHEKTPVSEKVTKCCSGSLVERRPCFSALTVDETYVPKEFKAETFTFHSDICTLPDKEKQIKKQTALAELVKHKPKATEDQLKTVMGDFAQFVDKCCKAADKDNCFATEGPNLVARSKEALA

SMILES: CN[C@H]1C(=O)N[C@@H]2Cc3ccc(cc3)Oc3cc4cc(c3O[C@@H]3O[C@H](C(=O)O)[C@@H](O)[C@H](O)[C@H]3NC(=O)CCCCCCCCC(C)C)Oc3ccc(cc3Cl)[C@@H](O)[C@@H]3NC(=O)[C@H](NC(=O)[C@@H]4NC(=O)[C@@H](NC2=O)c2cc(cc(O)c2Cl)Oc2cc1ccc2O)c1ccc(O)c(c1)-c1c(O[C@H]2O[C@H](CO)[C@@H](O)[C@H](O)[C@@H]2O)cc(O)cc1[C@@H](C(=O)NCCCN(C)C)NC3=O [Dalbavancin]
- Success rate by pathogen: Total organisms (Gram-positive pathogen; single-dose 1100 mg): 7/16 (43.8%)
- Success rate by pathogen: Total organisms (Gram-positive pathogen; two-dose 1000/500 mg): 14/16 (87.5%)
- Microbiologic success rate (by patient) (Gram-positive pathogen; EOT, single-dose 1100 mg): 5/14 (35.7) %
- Microbiologic success rate (by patient) (Gram-positive pathogen; EOT, two-dose 1000/500 mg): 10/13 (76.9) %
- Microbiologic success rate (by patient) (Gram-positive pathogen; FU, single-dose 1100 mg): 3/14 (21.4) %
- Microbiologic success rate (by patient) (Gram-positive pathogen; FU, two-dose 1000/500 mg): 9/13 (69.2) %
- Microbiologic success rates, summary over both visits (EOT, FU) (Gram-positive pathogen; microbiologically-evaluable and MITT populations, single dose of dalbavancin): < 40%
- Eradication/presumed eradication rate, all organisms (Gram-positive pathogen; single-dose dalbavancin): 58.3% and 58%
- Eradication/presumed eradication rate, all organisms (Gram-positive pathogen; two-dose dalbavancin): 92.3% and 92%
- Clinical success rate ([1]; Clinically evaluable at EOT, single-dose 1100 mg): 13/16 (61.5) %
- Clinical success rate ([1]; Clinically evaluable at EOT, two-dose 1000/500 mg): 16/17 (94.1) %
- Clinical success rate ([1]; ITT at EOT, single-dose dalbavancin 1100 mg IV day 1): 15/20 (75.0) %
- Clinical success rate ([1]; ITT at EOT, two-dose dalbavancin 1000 mg day 1 + 500 mg day 8 IV): 19/21 (90.5) %
- Clinical success rate ([1]; ITT at FU, single-dose 1100 mg): 12/20 (60.0) %
- Clinical success rate ([1]; ITT at FU, two-dose 1000/500 mg): 19/21 (90.5) %
- Clinical success rate ([1]; MITT at EOT, single-dose 1100 mg): 10/14 (71.4) %
- Clinical success rate ([1]; MITT at EOT, two-dose 1000/500 mg): 12/13 (92.3) %
- Clinical success rate ([1]; MITT at FU, single-dose 1100 mg): 7/14 (50.0) %
- Clinical success rate ([1]; MITT at FU, two-dose 1000/500 mg): 12/13 (92.3) %
- Clinical success rate at FU, patients with MRSA ([1]; single-dose dalbavancin): 50%
- Clinical success rate at FU, patients with MRSA ([1]; two-dose dalbavancin): 80%
- Clinical success rate ([1]; Microbiologically evaluable at EOT, single-dose 1100 mg): 10/13 (76.9) %
- Clinical success rate ([1]; Microbiologically evaluable at EOT, two-dose 1000/500 mg): 10/11 (90.9) %
- Clinical success rate ([1]; Microbiologically evaluable at FU, single-dose 1100 mg): 6/11 (54.5) %
- Clinical success rate ([1]; Microbiologically evaluable at FU, two-dose 1000/500 mg): 10/11 (90.9) %
- Clinical success rate, exploratory subanalysis ([1]; single-dose dalbavancin): 58.3%
- Clinical success rate, exploratory subanalysis ([1]; two-dose dalbavancin): 93.8%
- Dose recovered in the bile ([2]; bile duct cannulated rats, over 384 h after the dose): ~11 % of the dose
- Concentrations of radioactivity in the CNS ([2]; healthy rats): low but detectable
- Time by which all tissues had quantifiable drug-derived radioactivity ([2]; male rats, single IV infusion 20 mg/kg): ≤ 12 h
- Skin penetration: drug-derived radioactivity in skin relative to plasma ([2]; rats): as high as or higher than in plasma
- Tissue accumulation ([2]; rats, through 70 days): did not accumulate in any single tissue, organ, or blood cellular component
- Apparent binding affinity Ka (rat albumin; 25° C.): 3.1 (±0.5) ×10^5 M^−1
- Apparent binding affinity Ka (rat albumin; 37° C.): 2.8 (±1.8) ×10^5 M^−1
- Population ratio of multimer to monomer: influence of ionic strength ([3]; 100 μg/mL, ammonium formate 5, 50, 100 mM pH 5, FIGS. 6-8): decrease in dalbavancin multimer to monomer population ratio
- Population ratio of multimer to monomer: influence of concentration ([3]; 20, 40, 60, and 80 μg/mL, FIG. 4): increases with increasing concentration
- Multimers in solution ([3]; dalbavancin 0.1 mg/ml in 8:2 water:isopropanol, teicoplanin 50 and 100 μg/mL in water): indicates the presence of dalbavancin multimers
- Population ratio of multimer to monomer: influence of pH ([3]; pH 2.5 to 5.5, FIG. 5): increases with increasing pH
- Dalbavancin MIC (Streptococcus pyogenes; standard of care arm): 1 (0.016) mg/L
- Dalbavancin MIC (Streptococcus pyogenes; two-dose arm): 1 (0.016) mg/L
- Dalbavancin MIC ([4]; single-dose arm): 3 (0.016) mg/L
- Dalbavancin MIC ([4]; standard of care arm): 4 (0.016) mg/L
- Dalbavancin MIC ([4]; two-dose arm): 2 (0.016) mg/L
- Dalbavancin MIC (S. aureus; single-dose arm (N = 14)): 13 (0.12) mg/L
- Dalbavancin MIC range (S. aureus; standard of care arm (N = 14)): 10 (0.016-0.25) mg/L
- Dalbavancin MIC (S. aureus; two-dose arm (N = 13)): 11 (0.12) mg/L
- Dalbavancin MIC (Group B streptococcus; standard of care arm): 2 (0.016) mg/L
- Dalbavancin MIC (Group B streptococcus; two-dose arm): 2 (0.016) mg/L
- Binding to dipeptide (D-Ala-D-Ala) (dipeptide (D-Ala-D-Ala)): no evidence of binding
- Hepatotoxicity or nephrotoxicity ([5]; Phase II trial): no evidence that dalbavancin induces any degree of clinically significant hepatotoxicity or nephrotoxicity
- Serious adverse events related to study drug ([5]; Phase II trial, both dalbavancin regimens): no serious adverse events related to study drug treatment
- Tolerability ([5]; Phase II trial, both doses): well tolerated
- AE leading to discontinuation of study medication [5, 8]: 0
- Patients with ≧1 AE [5, 8]: 95%
- ≧1 AE possibly/probably related to treatment [5, 8]: 55%
- ≧1 AE possibly/probably related to treatment ([5]; single-dose dalbavancin (N = 20), listed as dalbavancin): 55%
- AE leading to discontinuation of study medication ([5]; two-dose dalbavancin (N = 21)): 0
- Adverse event: Constipation ([5]; two-dose dalbavancin (N = 21)): 4.8%
- Patients with ≧1 AE ([5]; two-dose dalbavancin (N = 21)): 76.2%
- ≧1 AE possibly/probably related to treatment ([5]; two-dose dalbavancin (N = 21)): 48%
- ≧1 AE possibly/probably related to treatment ([5]; two-dose dalbavancin (N = 21), listed as dalbavancin): 48%
- Stability in processed plasma samples ([6]; 24 hours at room temperature): stable after 24 hours at room temperature
- Stability in human plasma, freeze-thaw ([6]; three cycles of freeze-thaw): stable after three cycles of freeze-thaw treatment
- Kass ([7]; 10 ° C., [HSA] 0 μM): 920000 M⁻¹ and 685000 M⁻¹ and 624000 M⁻¹ and 670000 M⁻¹
- Kd ([7]; 10 ° C., [HSA] 0 μM, read-out: Kdiss): 1.09 µM and 1.6 µM and 1.49 µM
- Kd ([7]; 10° C., absence of HSA, read-out: Average Kdiss): ~1.4 µM
- Weakening of binding affinity at HSA plateau relative to absence of HSA ([7]; 25° C.): 10-12 ×
- Kass ([7]; 25 ° C., [HSA] 0 μM): 313000 M⁻¹ and 330000 M⁻¹ and 320000 M⁻¹ and 280000 M⁻¹ and 303000 M⁻¹ and 319000 M⁻¹ and 393000 M⁻¹
- Kd ([7]; 25 ° C., [HSA] 0 μM, read-out: Kdiss): 3.57 µM and 3.3 µM and 2.54 µM
- Kd ([7]; 25° C., absence of HSA (free dalbavancin), read-out: Average Kdiss): ~3.1 µM
- Kass ([7]; 25 ° C., with HSA 34.2 μM): 35000 M⁻¹
- Kd ([7]; 25 ° C., with HSA 34.2 μM, read-out: Kdiss): 28.6 µM
- Kd ([7]; 37° C., absence of HSA, read-out: Average Kdiss): ~8.4 µM
- Effect of HSA on solubility of dalbavancin ([7]; aqueous buffer pH 7.4 containing HSA): HSA increased the solubility of dalbavancin
- Kd ([7]; read-out: Apparent Kdiss, plateau level at high concentrations of HSA (dalbavancin bound to HSA), 25° C., HSA above 35 μM up to 600 μM, FIG. 11): ~35 µM
